# In patent publication US20180215781A1, “BETUIN DERIVATIVES FOR PREVENTING OR TREATING HIV INFECTIONS” (GLAXOSMITHKLINE INTELLECTUAL PROPERTY (NO.2) LIMITED, priority 2015, published 2018):
# Where a name gives a salt, the structure may show the parent alone.
# What was measured:
# HIV = conditions: cited from earlier work
# NL4-3 wt = experiment: MT4 Cell Antiviral Assay, NL4-3 wt; assay type: cell-based, HIV-1; conditions: Human immunodeficiency virus 1, NL43, HIV MT4 Antiviral Cell Assay of Example 11
# V370A = experiment: MT4 Cell Antiviral Assay, V370A; assay type: cell-based, HIV-1; conditions: Human immunodeficiency virus 1, MT4, read-out: EC50V370A
SMILES,"reduced HIV viral load, mean (HIV; patients with trough levels >=20 μg/mL and without key baseline Gag polymorphisms at Q369, V370 or T371) [log10/mL]","viral load reductions versus patients without Gag polymorphisms (HIV; users with Gag polymorphisms at Q369, V370 or T371)",EC50 (NL4-3 wt) [nM],EC50 (V370A) [nM]
C=C(C)[C@@H]1CC[C@]2(C(=O)O)CC[C@]3(C)[C@H](CC[C@@H]4[C@@]5(C)CC[C@H](OC(=O)CC(C)(C)C(=O)O)C(C)(C)[C@@H]5CC[C@]43C)[C@@H]12 [Bevirimat],1.3,significantly lower load reductions,–,–
"COCC(=O)N(CC1CC1)C[C@H](O)[C@@]12CC[C@]3(C)[C@H](CC[C@@H]4[C@@]5(C)CC=C(C6=CCC(C(=O)O)CC6)C(C)(C)[C@@H]5CC[C@]43C)C1=C(C(C)C)C(=O)C2 (stereo partly drawn) [Example 1, 4-((3aR,5aR,5bR,7aR,11aS, 11bR,13aS)-3a-((R)-2-(N-(cyclopropylmethyl)-2-methoxyacetamido)-1-hydroxyethyl)-1-isopropyl-5a,5b,8,8,11a-pentamethyl-2-oxo-3,3a,4,5,5a,5b,6,7,7a,8, 11,11a,11b,12,13,13a-hexadecahydro-2H-cyclopenta[a]chrysen-9-yl)cyclohex-3-enecarboxylic acid]",–,–,7.9,8.9
"CC(C)C1=C2[C@H]3CC[C@@H]4[C@@]5(C)CC=C(C6=CCC(C(=O)O)CC6)C(C)(C)[C@@H]5CC[C@@]4(C)[C@]3(C)CC[C@@]2([C@@H](O)CN(CC2CC2)C(=O)CN(C)C)CC1=O (stereo partly drawn) [Example 2, 4-((3aR,5aR,5bR,7aR,11aS, 11bR,13aS)-3a-((R)-2-(N-(cyclopropylmethyl)-2-(dimethylamino)acetamido)-1-hydroxyethyl)-1-isopropyl-5a,5b,8,8,11a-pentamethyl-2-oxo-3,3a,4,5,5a,5b,6,7,7a,8, 11,11a,11b,12,13,13a-hexadecahydro-2H-cyclopenta[a]chrysen-9-yl)cyclohex-3-enecarboxylic acid]",–,–,5.4,11.2
"CC(C)C1=C2[C@H]3CC[C@@H]4[C@@]5(C)CC=C(C6=CCC(C(=O)O)CC6)C(C)(C)[C@@H]5CC[C@@]4(C)[C@]3(C)CC[C@@]2([C@@H](O)CN(CC2CC2)C(=O)CN2CCCC2)CC1=O (stereo partly drawn) [Example 3, 4-((3aR,5aR,5bR,7aR,11aS, 11bR,13aS)-3a-((R)-2-(N-(cyclopropylmethyl)-2-(pyrrolidin-1-yl)acetamido)-1-hydroxyethyl)-1-isopropyl-5a,5b,8,8,11a-pentamethyl-2-oxo-3,3a,4,5,5a,5b,6,7,7a,8, 11,11a,11b,12,13,13a-hexadecahydro-2H-cyclopenta[a]chrysen-9-yl)cyclohex-3-enecarboxylic acid]",–,–,3.3,3.7
"CC(C)C1=C2[C@H]3CC[C@@H]4[C@@]5(C)CC=C(C6=CCC(C(=O)O)CC6)C(C)(C)[C@@H]5CC[C@@]4(C)[C@]3(C)CC[C@@]2([C@@H](O)CN(CC2CC2)C(=O)CN2CCCC2=O)CC1=O (stereo partly drawn) [Example 4, 4-((3aR,5aR,5bR,7aR,11aS, 11bR,13aS)-3a-((R)-2-(N-(cyclopropylmethyl)-2-(2-oxopyrrolidin-1-yl)acetamido)-1-hydroxyethyl)-1-isopropyl-5a,5b,8,8,11a-pentamethyl-2-oxo-3,3a,4,5,5a,5b,6,7,7a,8, 11,11a,11b,12,13,13a-hexadecahydro-2H-cyclopenta[a]chrysen-9-yl)cyclohex-3-enecarboxylic acid]",–,–,7.1,20.9
"COCC(=O)N(CC1CCC1)C[C@H](O)[C@@]12CC[C@]3(C)[C@H](CC[C@@H]4[C@@]5(C)CC=C(C6=CCC(C(=O)O)CC6)C(C)(C)[C@@H]5CC[C@]43C)C1=C(C(C)C)C(=O)C2 (stereo partly drawn) [Example 6, 4-((3aR,5aR,5bR,7aR,11aS, 11bR,13aS)-3a-((R)-2-(N-(cyclobutylmethyl)-2-methoxyacetamido)-1-hydroxyethyl)-1-isopropyl-5a,5b,8,8,11a-pentamethyl-2-oxo-3,3a,4,5,5a,5b,6,7,7a,8, 11,11a,11b,12,13,13a-hexadecahydro-2H-cyclopenta[a]chrysen-9-yl)cyclohex-3-enecarboxylic acid]",–,–,10,20.4
"CC(C)C1=C2[C@H]3CC[C@@H]4[C@@]5(C)CC=C(C6=CCC(C(=O)O)CC6)C(C)(C)[C@@H]5CC[C@@]4(C)[C@]3(C)CC[C@@]2([C@@H](O)CN(CC2CCC2)C(=O)CN2CCCC2)CC1=O (stereo partly drawn) [Example 7, 4-((3aR,5aR,5bR,7aR,11aS, 11bR,13aS)-3a-((R)-2-(N-(cyclobutylmethyl)-2-(pyrrolidin-1-yl)acetamido)-1-hydroxyethyl)-1-isopropyl-5a,5b,8,8,11a-pentamethyl-2-oxo-3,3a,4,5,5a,5b,6,7,7a,8, 11,11a,11b,12,13,13a-hexadecahydro-2H-cyclopenta[a]chrysen-9-yl)cyclohex-3-enecarboxylic acid]",–,–,5.8,4.1
"CC(C)C1=C2[C@H]3CC[C@@H]4[C@@]5(C)CC=C(C6=CCC(C(=O)O)CC6)C(C)(C)[C@@H]5CC[C@@]4(C)[C@]3(C)CC[C@@]2([C@@H](O)CN(CCN(C)C)Cc2ccc(Cl)cc2)CC1=O (stereo partly drawn) [Example 9, 4-((3aR,5aR,5bR,7aR,11aS, 11bR,13aS)-3a-((R)-2-((4-chlorobenzyl)(2-(dimethylamino)ethyl)amino)-1-hydroxyethyl)-1-isopropyl-5a,5b,8,8,11a-pentamethyl-2-oxo-3,3a,4,5,5a,5b,6,7,7a,8, 11,11a,11b,12,13,13a-hexadecahydro-2H-cyclopenta[a]chrysen-9-yl)cyclohex-3-enecarboxylic acid dihydrochloride]",–,–,6.8,10.7
"CC(C)C1=C2[C@H]3CC[C@@H]4[C@@]5(C)CC=C(C6=CCC(C(=O)O)CC6)C(C)(C)[C@@H]5CC[C@@]4(C)[C@]3(C)CC[C@@]2([C@@H](O)CNCC2CC2)CC1=O (stereo partly drawn) [Example 10, 4-((3aR,5aR,5bR,7aR,11aS, 11bR,13aS)-3a-((R)-2-((cyclopropylmethyl)amino)-1-hydroxyethyl)-1-isopropyl-5a,5b,8,8,11a-pentamethyl-2-oxo-3,3a,4,5,5a,5b,6,7,7a,8, 11,11a,11b,12,13,13a-hexadecahydro-2H-cyclopenta[a]chrysen-9-yl)cyclohex-3-enecarboxylic acid]",–,–,9.3,25100
